Values after ≈ are worked out from the molar mass of the structure shown. “Also recorded” adds a separate entry of the source. Where two headings read alike, the source gives them in different places. Marks after values point to notes of the source that are not given here.
How the values were obtained:
[1] = Lipophilicity (LogP) determination, shake-flask octanol/water; assay type: physicochemical; conditions: HPLC, read-out: LogP (experimental)
Excerpt: For anti-Alzheimer drug candidates, the ability to cross the blood–brain barrier (BBB) and to enter the central nervous system (CNS) is crucial to achieve their pharmacological target binding and activity, and CNS drugs require more strict rules for a successful penetration. […] Besides, for molecules to penetrate the BBB, a topological polar surface area (TPSA) value less than 90 Å ^2 is usually needed and molecules with a TPSA of greater than 120 Å ^2 tend to be poor in permeating cell membranes. Therefore, the molar mass (MW), LogP, and TPSA of all target compounds were simulated by ChemDraw 19.0 (Table 1). […] Because LogP was thought as an important physicochemical parameter to evaluate the ability to cross BBB, the LogP of some compounds was further assessed in experiments.
The lipophilicities of test compounds were determined using the traditional shake-flask method. A solid test compound (2 mg) was placed into a 10 mL pear-shaped flask, and measured volumes of octanol and water were added for logP determination. The resulting biphasic mixture was stirred for 24 h and then left without stirring for 12 h to allow phase separation. The test compound in each phase was sampled and quantitated using HPLC. The areas under the peaks were divided and the log taken.

AChE = molecular target: T1, AChE (Electrophorus electricus, UniProt O42275); assay: Enzyme kinetic analysis against AChE (reversibility, Lineweaver-Burk, Ki); assay type: biochemical; conditions: for type of AChE inhibition: Lineweaver-Burk plots; for Ki: Lineweaver-Burk secondary plots, substrate ATCI, read-out: Ki (inhibition constant) against AChE; for reversibility of AChE inhibition: plots of initial velocity versus enzyme concentration
T1 construct: purchased Sigma-Aldrich
Experimental: The kinetic characteristics of two active compounds, 11a and 11g, against AChE was also studied to elucidate the type of inhibition and the inhibition constant. The analysis was carried out by measuring the enzyme’s activity at different concentrations of substrate (0 μM–10.0 μM). The acquired inhibition data were further depicted with the Lineweaver–Burk method followed by inhibition constant (Ki) calculation using Lineweaver–Burk secondary plots. […] This pattern of inhibition is usually the result of a combination of partially competitive and non-competitive inhibitors.
In order to investigate the reversibility of compounds 11a and 11g to AChE, different concentrations of compounds (0−10 μM) and five different concentrations of AChE (0.025−0.10 U/mL) were measured at 412 nm after a 2 min incubation at 37 °C. Values were measured in triplicate for the velocity and enzyme concentration profiles. Velocity (V) was calculated from the measured data as follows: V = (Ac−Ai)/2, where Ai and Ac represent the change in absorbance in the presence and absence of […], respectively. All data were analyzed by OriginPro 2021.
For each experiment, the reaction was started by adding substrate and the progression curve was recorded at 412 nm after two minutes of incubation at 37°C. […] The slopes of these inverse plots were then plotted against the compound concentrations in the correlation analysis, and Ki was determined as the intercept on the negative x-axis. All rate measurements were performed in triplicate and data analysis was performed using OriginPro 2021.

[2] = Water solubility, shake-flask method; assay type: physicochemical; conditions: thermodynamic from solid, double distilled water, 37 °C
Experimental: Water solubility is regarded as another vital descriptor for BBB penetration, where high solubility is considered as a prerequisite for a rapid absorption and higher bioavailability of a drug candidate. […] With this experiment, we have obtained their data as 0.62, 3.03, 12.9, and […] for the selected compounds 11a, 11g, 12a, and 12c, respectively.
Solubility was determined by using the shake-flask method.The desired amount of the compound was placed in a test tube, to which an appropriate amount of double distilled water was introduced. The suspension was agitated on a plate shaker at 37 °C for 24 h. After centrifuging, HPLC analyses of supernatant was performed. The solubility of the compound was obtained from its HPLC result.

[3] = molecular target: T2, AChE (EC 3.1.1.7, from electric eel) (Electrophorus electricus, UniProt O42275); assay: biochemical; conditions: for IC50: means ± SD, at least three independents
T2 construct: purchased Sigma-Aldrich
Experimental: (§1) AChE and BChE inhibitory activities of compounds were determined by using a modified Ellman’s method. AChE (EC 3.1.1.7, from electric eel), BChE (EC 3.1.1.8, from horse serum), 5,5′-dithiobis(2nitrobenzoic acid) (DTNB), acetylthiocholine iodide (ATCI) and butyrylthiocholine iodide (BTCI) were purchased from Sigma-Aldrich. The reaction mixture contained 140 μL of 100 mM sodium phosphate buffer (pH 8.0), the enzyme solution (either 0.05 U/mL of AChE, 20 μL; or 0.05 U/mL of BChE, 20 μL), and test compound (20 μL). Assayed solutions of test compounds were pre-incubated with corresponding ChE at 25 °C for 15 min. The reaction was initiated by the addition of 10 μL of 10 mM DTNB and 10 μL of 7.5 mM substrate (ATCI or BTCI). The activity was determined by measuring the increase in absorbance at 412 nm at 37 °C in 10 min intervals using a microplate reader. The percentage of inhibition was calculated from the measured data as follows: (Ac − Ai)/Ac × 100%, where Ai and Ac represent the change in the absorbance in the presence of inhibitor and without inhibitor, respectively.

[4] = molecular target: T3, BChE (EC 3.1.1.8, from horse serum) (Equus caballus, UniProt P81908); assay: biochemical; conditions: means ± SD, at least three independents
T3 construct: BChE (EC 3.1.1.8, from horse serum); purchased Sigma-Aldrich; host or cells: horse serum
Experimental: as §1

[5] = ABTS radical-scavenging assay
Experimental: ABTS radical-scavenging activity was measured by using the modified method. The test compound was dissolved in ethanol as 1.0 mg/mL, 0.5 mg/mL, 0.25 mg/mL, 0.125 mg/mL, 0.0625 mg/mL, and 0.03125 mg/mL. Similarly, the ethanol solution of Trolox with the same concentration gradient was prepared as a positive control. ABTS solution at a concentration of 7 mM and potassium persulfate solution at a concentration of 2.45 mM with distilled water were also prepared. The ABTS solution and the potassium persulfate solution were mixed in equal amounts, and then placed in the dark and protected from light for 12 h. The ABTS standard solution was diluted with ethanol until the absorbance value at 734 nm was in the range of 0.7 ± 0.05. Then, 3900 µL of ABTS cation solution was mixed with 100 µL of test compound at different concentrations. The samples were kept in the dark for 10 min at room temperature and absorption was measured at 734 nm on a spectrophotometer. The percentage of ABTS radical-scavenging activity was calculated as follows: (Ac−Ai)/Ac × 100%, where Ai and Ac represented the change in absorbance in the presence and absence of the test sample, respectively.

[6] = molecular target: T2, AChE (EC 3.1.1.7, from electric eel); conditions: cited from earlier work
[7] = molecular target: T3, BChE (EC 3.1.1.8, from horse serum); conditions: cited from earlier work

T1 sequence (O42275 24-633): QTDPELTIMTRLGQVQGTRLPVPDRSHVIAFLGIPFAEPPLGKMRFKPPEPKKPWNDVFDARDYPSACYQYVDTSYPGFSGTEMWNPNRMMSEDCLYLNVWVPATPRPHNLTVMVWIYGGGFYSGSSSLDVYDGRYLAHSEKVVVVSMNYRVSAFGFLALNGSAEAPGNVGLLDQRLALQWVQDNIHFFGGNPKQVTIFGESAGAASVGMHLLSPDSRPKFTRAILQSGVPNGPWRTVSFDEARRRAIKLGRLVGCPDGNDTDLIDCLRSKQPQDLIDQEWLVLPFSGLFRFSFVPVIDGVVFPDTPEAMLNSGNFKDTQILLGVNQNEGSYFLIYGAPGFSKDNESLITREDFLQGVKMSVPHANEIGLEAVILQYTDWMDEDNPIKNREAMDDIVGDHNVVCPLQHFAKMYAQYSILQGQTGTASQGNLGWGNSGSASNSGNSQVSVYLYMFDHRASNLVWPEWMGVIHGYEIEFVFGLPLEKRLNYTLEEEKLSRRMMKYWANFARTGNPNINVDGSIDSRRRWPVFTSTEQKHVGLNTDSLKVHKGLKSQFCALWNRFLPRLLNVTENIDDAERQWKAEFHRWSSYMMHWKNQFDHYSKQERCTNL
T2 sequence (O42275 24-633): as above
T3 sequence (P81908 whole entry): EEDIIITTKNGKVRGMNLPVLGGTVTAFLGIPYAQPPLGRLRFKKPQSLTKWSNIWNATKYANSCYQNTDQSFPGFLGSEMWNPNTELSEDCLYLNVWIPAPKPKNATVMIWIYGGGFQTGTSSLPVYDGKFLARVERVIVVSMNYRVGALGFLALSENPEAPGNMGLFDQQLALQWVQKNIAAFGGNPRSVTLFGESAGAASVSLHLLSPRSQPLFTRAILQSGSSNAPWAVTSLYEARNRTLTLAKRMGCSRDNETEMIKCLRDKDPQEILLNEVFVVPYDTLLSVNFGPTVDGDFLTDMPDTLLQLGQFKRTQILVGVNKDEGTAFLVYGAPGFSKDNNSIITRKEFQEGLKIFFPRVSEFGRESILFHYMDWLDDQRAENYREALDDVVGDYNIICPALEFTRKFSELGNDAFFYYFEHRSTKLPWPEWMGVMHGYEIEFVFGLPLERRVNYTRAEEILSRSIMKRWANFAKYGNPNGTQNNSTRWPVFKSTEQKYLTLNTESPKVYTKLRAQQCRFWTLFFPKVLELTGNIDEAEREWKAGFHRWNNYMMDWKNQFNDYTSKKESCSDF

SMILES	logP at 24 h [1]	type of AChE inhibition (AChE)	Ki (AChE) [nM]	reversibility of AChE inhibition (AChE)	solubility at 24 h [2] [µg/mL]	SI for AChE = IC50 BChE/IC50 AChE [3]	IC50 [3] [µM]	IC50 [4] [µM]	ABTS radical-scavenging IC50 [5] [µg/mL]	IC50 [5] [µM]	SI for AChE = IC50 BChE/IC50 AChE [6]	IC50 [7] [µM]	IC50 [6] [nM]
COc1cc2c(Nc3ccccc3)c([N+](=O)[O-])cnc2cc1OCCCN1CCOCC1 [11a, 6-Methoxy-7-(3-Morpholinopropoxy)-3-Nitro-4-Phenylamino-Quinoline]	3.82	mixed-type AChE inhibitors; also recorded: mixed type of inhibition	2030	reversible inhibitors	620 (≈ 1.41 mM)	16.37	4.94 ± 0.15	80.9 ± 2.31	–	–	–	–	–
COc1cc2c(Nc3ccccc3)c([N+](=O)[O-])cnc2cc1OCCN1CCOCC1 [11g, 6-Methoxy-7-(2-Morpholinoethoxy)-3-Nitro-4-Phenylamino-Quinoline]	3.55	mixed-type AChE inhibitors; also recorded: mixed type of inhibition	640	reversible inhibitors	3030 (≈ 7.14 mM)	–	1.94 ± 0.13	28.4 ± 1.85	17.50 ± 2.71	41.2 ± 6.38	–	–	–
COc1cc2c(Nc3ccccc3Cl)c([N+](=O)[O-])cnc2cc1OCCCN(C)Cc1ccccc1 [B]	–	–	–	–	–	–	–	–	–	–	3.08 ^e	–	–
COc1ccc(Nc2c([N+](=O)[O-])cnc3cc(OCCCN4CCC(C)CC4)c(OC)cc23)cc1 [C]	–	–	–	–	–	–	–	–	–	–	15.43 ^f	18.5 ± 1.2	1200 ± 180

— paper PMC9570490, “Novel Morpholine-Bearing Quinoline Derivatives as Potential Cholinesterase Inhibitors: The Influence of Amine, Carbon Linkers and Phenylamino Groups” (International Journal of Molecular Sciences, 2022)
